The data set can be described thus: Solubility of fluvastatin sodium in solvents. Format: physicochemical. As to conditions: in water at 100° C.; read-out: Concentration of solution obtainable (solubility). The text has this: Fluvastatin sodium Form XLI can be prepared by precipitating fluvastatin sodium from a mixture of water and acetonitrile. Fluvastatin sodium should first be dissolved in water. The water may be heated in order to produce a more concentrated solution and maximized recovery of Form XLI. […] The addition is done at whatever elevated temperature was used to dissolve the starting material or at higher temperature. The addition is dropwise and will generally require adding a excess of acetonitrile over the amount of water that was used. For example, we used a little less than four volumes of acetonitrile. The resulting heterogeneous mixture is then allowed to cool. Before isolating the fluvastatin sodium Form XLI that precipitates. The recovery can be improved by adding an addition portion of acetonitrile after cooling.
Fluvastatin sodium Form L can be prepared by precipitation from a mixture of methanol and ethyl acetate. The fluvastatin sodium starting material, in any crystalline form or amorphous, should first be dissolved in the methanol. […] The starting material can be dissolved either at ambient or elevated temperature, e.g. the boiling point of methanol. Once dissolved, precipitation of Form L is induced by dropwise addition of ethyl acetate to the solution at elevated temperature. The amount of ethyl acetate used is preferably about three times the volume of methanol. […]

With `CC(C)n1c(/C=C/C(O)CC(O)CC(=O)O)c(-c2ccc(F)cc2)c2ccccc21` (stereo not drawn) [Fluvastatin sodium, [R*,S*-(E)]-(±)-7-[3-(4-fluorophenyl)-1-(1-methylethyl)-1H-indol-2-yl]-3,5-dihydroxy-6-heptenoic acid monosodium], the solubility was at least 375 mg/mL.

The record behind these values is patent publication US7414140B2 (Teva Pharmaceutical Industries Ltd., priority 2003, dated 2008).
